In patent EP0293130A2, “Dimers of parathyroid hormone antagonists” (Merck & Co., Inc., priority 1987, dated 1988):

System: adenylate cyclase
Conditions: adenylate cyclase assay
Text: In the adenylate cyclase assay of Caporale, L. et al, Peptides: Structure and Function, Proc. 9th Am. Pept. Symp. p.

For ([Tyr³⁴,Cys³⁹]PTH(21-39)NH₂)₂, the “increase in antagonist potency over its monomeric derivative” value (dimer versus its monomeric derivative) was 25 fold and the IC50 (read-out: IC₅₀ (antagonist potency), antagonism of PTH) was 20 µM.
